Results from patent US9890185B2, “Urea derivatives useful as kinase inhibitors” (Respivert Limited, priority 2013, dated 2018).
Converted amounts (≈) assume the structure as drawn. Read-outs that look alike come from different tables or passages of the source.

Assays:
[1] = system: endotoxin (LPS)-induced uveitis; experiment: Endotoxin-induced uveitis in rats (in vivo assay vi); parameters: species or system Lewis rats; conditions: eyes of LPS-stimulated rats, topical, 1 mg/mL
Experimental: Male, Lewis rats (6-8 weeks old, Charles River UK Limited) are housed in cages of 3 at 19-21° C. with a 12 h light/dark cycle (07:00/19:00) and fed a standard diet of rodent chow and water ad libitum. […] Untreated rats are injected with PBS. […] Before administration, the solution or suspension to be administered is agitated for 5 minutes to ensure a uniform suspension. 6 hours after LPS dosing, animals are euthanized by overdose with pentobarbitone (i.v.). Following euthanasia, the right eye of each animal is enucleated and dissected into front (anterior) and back (posterior) sections around the lens. Each section is weighed and homogenised in 500 μL of sterile phosphate buffered saline followed by 20 minutes centrifugation at 12000 rpm at 4° C. The resulting supernatant is divided into 3 aliquots and stored at −80° C. until subsequent cytokine analysis by R&D DuoSet ELISA.

[2] = Solubility in fasted-state simulated colonic fluid (FaSSCoF); assay type: physicochemical; conditions: thermodynamic from solid, pH 6.5, 25° C.; for solubility thermodynamic at 24 h: 25 °C, pH 6.5, fassgf or other biorelevant
Experimental: The solubilities of compounds of the invention in FaSSCoF at pH 6.5 are determined using a modification of a previously-reported procedure (Vertzoni, M., et al. Pharm. Res. 2010, 27, 2187-2196). In place of the bile salt extract employed in the original procedure (which extract is no longer available), the modified procedure uses a mixture of sodium taurochlorate (0.15 g), glycocholic acid (0.15 g), ursodeoxycholic acid (0.05 g), cholic acid (0.05 g), and glycodeoxycholic acid (0.05 g). These five bile acids are ground together with a mortar and pestle to produce a fine white powder that is incorporated into the FaSSCoF, as outlined below.
Tris(hydroxymethyl)aminomethane (Tris; 0.275 g) and maleic acid (0.44 g) are dissolved in water (35 mL) to give a solution whose pH is adjusted to 6.5 by treatment with 0.5M NaOH (ca. 12 mL). The solution is then made up to 50 mL with water. A portion of this Tris/maleate buffer solution (ca. 25 mL) is added to a 0.5 L round-bottomed flask, before being treated with 0.00565 g of the bile acid mixture described above. Solutions of phosphatidylcholine (0.0111 g) in DCM (0.15 mL) and palmitic acid (0.0013 g) in DCM (0.15 mL) are added, then the organic solvent is evaporated off under reduced pressure at 40° C. until a clear solution, with no perceptible DCM odour, is achieved. The volume of the evaporated solution is adjusted to 50 mL by addition of the remainder of Tris/maleate buffer, then BSA (0.115 g) is added, before being dissolved by gentle agitation.
Test compounds are suspended in the pH 6.5 FaSSCoF medium to give a maximum final concentration of ca. 6 mg/mL. The suspensions are equilibrated at 25° C. for 24 h, before being filtered through a glass fibre C filter. The filtrates are then diluted as appropriate for injection and quantification by HPLC with reference to a standard. Different volumes of the standard, diluted and undiluted sample solutions are injected and the solubilities are calculated using the peak areas determined by integration of the peak found at the same retention time as the principal peak in the standard injection.

PBMCs = experiment: LPS-induced IL-8 release in PBMC cells (assay b); assay type: cell-based, human; conditions: Homo sapiens, PBMC; LPS-stimulated PBMCs; read-out: IC50 Values for Inhibition of Cytokine Release, PBMCs IL-8
How it was run: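 Human PBMCs from healthy donors, isolated by density gradient, were pretreated with compound for 2 h and then stimulated with 1 ng/mL LPS (E. coli 0111:B4) for 24 h at 37° C, 5% CO2. Supernatant IL-8 and TNFα were measured by sandwich ELISA, and IC50 was taken from the dose-response curve.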

Row | solubility thermodynamic at 24 h ([2]; Run 1, read-out: pH 6.5 FaSSCoF Solubility Run 1) [µg/mL] | solubility thermodynamic at 24 h ([2]; Run 2, read-out: pH 6.5 FaSSCoF Solubility Run 2) [µg/mL] | solubility at 24 h ([2]; fassgf or other biorelevant, read-out: Solubility in the FaSSCoF medium) [µg/mL] | SMILES | Cell counts [1] | IC50 (PBMCs) [nM]
1 |  |  |  | C[C@@H]1C[C@H]2[C@@H]3CCC4=CC(=O)C=C[C@]4(C)[C@@]3(F)[C@@H](O)C[C@]2(C)[C@@]1(O)C(=O)CO [Dexamethasone, dexamethasone, reference compound] | 30.1 ± 6.4 | 
2 | 15 (≈ 18.9 µM) | 16 (≈ 20.2 µM) | > 10 | COc1cc(Nc2cc(Oc3ccc(NC(=O)Nc4cc(C(C)(C)C)cc([S+](C)[O-])c4OC)c4ccccc34)ccn2)cc(C(=O)NCCN2CCN(C)CC2)c1 (centres unmarked) [Example 84, 3-((4-((4-(3-(5-(tert-Butyl)-2-methoxy-3-(methylsulfinyl)phenyl)ureido)naphthalen-1-yl)oxy)pyridin-2-yl)amino)-5-methoxy-N-(2-(4-methylpiperazin-1-yl)ethyl)benzamide] |  | 1.8
